According to PubChem BioAssay (NCI):
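The compound was tested at five concentrations on cells cultured in 96-well plates, with a 48-hour exposure period. TGI: total growth inhibition.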

What was measured:
Test in all cases: NCI-60 cell line screen, 48 h
786-0 renal = tested on: 786-0 renal
A498 renal = tested on: A498 renal
A549 NSCLC = tested on: A549 NSCLC
ACHN renal = tested on: ACHN renal
BT-549 breast = tested on: BT-549 breast
CAKI-1 renal = tested on: CAKI-1 renal
CCRF-CEM leukemia = tested on: CCRF-CEM leukemia
COLO 205 colon = tested on: COLO 205 colon
DU-145 prostate = tested on: DU-145 prostate
EKVX NSCLC = tested on: EKVX NSCLC
HCT-116 colon = tested on: HCT-116 colon
HCT-15 colon = tested on: HCT-15 colon
HL-60(TB) leukemia = tested on: HL-60(TB) leukemia
HOP-62 NSCLC = tested on: HOP-62 NSCLC
HS 578T breast = tested on: HS 578T breast
HT29 colon = tested on: HT29 colon
IGROV1 ovarian = tested on: IGROV1 ovarian
K-562 leukemia = tested on: K-562 leukemia
KM12 colon = tested on: KM12 colon
LOX IMVI melanoma = tested on: LOX IMVI melanoma
M14 melanoma = tested on: M14 melanoma
MCF7 breast = tested on: MCF7 breast
MDA-MB-231 breast = tested on: MDA-MB-231 breast
MDA-MB-435 = tested on: MDA-MB-435
MDA-N = tested on: MDA-N
MOLT-4 leukemia = tested on: MOLT-4 leukemia
NCI-H226 lung = tested on: NCI-H226 lung
NCI-H23 lung = tested on: NCI-H23 lung
NCI-H460 lung = tested on: NCI-H460 lung
NCI-H522 lung = tested on: NCI-H522 lung
NCI/ADR-RES ovarian = tested on: NCI/ADR-RES ovarian
OVCAR-3 ovarian = tested on: OVCAR-3 ovarian
OVCAR-4 ovarian = tested on: OVCAR-4 ovarian
OVCAR-5 ovarian = tested on: OVCAR-5 ovarian
OVCAR-8 ovarian = tested on: OVCAR-8 ovarian
PC-3 prostate = tested on: PC-3 prostate
RPMI-8226 leukemia = tested on: RPMI-8226 leukemia
SF-268 CNS = tested on: SF-268 CNS
SF-295 CNS = tested on: SF-295 CNS
SF-539 CNS = tested on: SF-539 CNS
SK-MEL-2 melanoma = tested on: SK-MEL-2 melanoma
SK-MEL-28 melanoma = tested on: SK-MEL-28 melanoma
SK-MEL-5 melanoma = tested on: SK-MEL-5 melanoma
SK-OV-3 ovarian = tested on: SK-OV-3 ovarian
SN12C renal = tested on: SN12C renal
SNB-19 CNS = tested on: SNB-19 CNS
SNB-75 CNS = tested on: SNB-75 CNS
SR leukemia = tested on: SR leukemia
SW-620 colon = tested on: SW-620 colon
T-47D breast = tested on: T-47D breast
TK-10 renal = tested on: TK-10 renal
U251 CNS = tested on: U251 CNS
UACC-257 melanoma = tested on: UACC-257 melanoma
UACC-62 melanoma = tested on: UACC-62 melanoma
UO-31 renal = tested on: UO-31 renal
HCC-2998 colon = tested on: HCC-2998 colon
HOP-92 NSCLC = tested on: HOP-92 NSCLC
MALME-3M melanoma = tested on: MALME-3M melanoma

Work on `CN(C)C1C(CO)OC(n2cnc3c(N)ncnc32)C1O` (stereo not given) yielded a TGI (786-0 renal) greater than 100 µM, a TGI (A498 renal) greater than 100 µM and a TGI (A549 NSCLC) greater than 100 µM. The TGI (ACHN renal) was greater than 100 µM, the TGI (BT-549 breast) was greater than 100 µM and the TGI (CAKI-1 renal) was greater than 100 µM. The TGI (CCRF-CEM leukemia) was greater than 100 µM, the TGI (COLO 205 colon) was greater than 100 µM and the TGI (DU-145 prostate) was greater than 100 µM. The TGI (EKVX NSCLC) was greater than 100 µM, the TGI (HCT-116 colon) was greater than 100 µM and the TGI (HCT-15 colon) was greater than 100 µM. For the same compound, the TGI (HL-60(TB) leukemia) was greater than 100 µM, the TGI (HOP-62 NSCLC) was greater than 100 µM and the TGI (HS 578T breast) was greater than 100 µM. The TGI (HT29 colon) was greater than 100 µM, the TGI (IGROV1 ovarian) was greater than 100 µM and the TGI (K-562 leukemia) was greater than 100 µM. It also gave a TGI (KM12 colon) greater than 100 µM, a TGI (LOX IMVI melanoma) greater than 100 µM and a TGI (M14 melanoma) greater than 100 µM. The TGI (MCF7 breast) was greater than 100 µM, the TGI (MDA-MB-231 breast) was greater than 100 µM and the TGI (MDA-MB-435) was greater than 100 µM. For the same compound, the TGI (MDA-N) was greater than 100 µM, the TGI (MOLT-4 leukemia) was greater than 100 µM and the TGI (NCI-H226 lung) was greater than 100 µM. The TGI (NCI-H23 lung) was greater than 100 µM, the TGI (NCI-H460 lung) was greater than 100 µM and the TGI (NCI-H522 lung) was greater than 100 µM. It also gave a TGI (NCI/ADR-RES ovarian) greater than 100 µM, a TGI (OVCAR-3 ovarian) greater than 100 µM and a TGI (OVCAR-4 ovarian) greater than 100 µM. For the same compound, the TGI (OVCAR-5 ovarian) was greater than 100 µM, the TGI (OVCAR-8 ovarian) was greater than 100 µM and the TGI (PC-3 prostate) was greater than 100 µM. The TGI (RPMI-8226 leukemia) was greater than 100 µM, the TGI (SF-268 CNS) was greater than 100 µM and the TGI (SF-295 CNS) was greater than 100 µM. For the same compound, the TGI (SF-539 CNS) was greater than 100 µM, the TGI (SK-MEL-2 melanoma) was greater than 100 µM and the TGI (SK-MEL-28 melanoma) was greater than 100 µM. For the same compound, the TGI (SK-MEL-5 melanoma) was greater than 100 µM, the TGI (SK-OV-3 ovarian) was greater than 100 µM and the TGI (SN12C renal) was greater than 100 µM. It also gave a TGI (SNB-19 CNS) greater than 100 µM, a TGI (SNB-75 CNS) greater than 100 µM and a TGI (SR leukemia) greater than 100 µM. It also gave a TGI (SW-620 colon) greater than 100 µM, a TGI (T-47D breast) greater than 100 µM and a TGI (TK-10 renal) greater than 100 µM. For the same compound, the TGI (U251 CNS) was greater than 100 µM, the TGI (UACC-257 melanoma) was greater than 100 µM and the TGI (UACC-62 melanoma) was greater than 100 µM. The TGI (UO-31 renal) was greater than 100 µM.
`Cc1cccc(/C=N/NC(=S)Nc2ccc(Cl)cc2)n1` was tested, and the TGI (786-0 renal) was 12.1 µM, the TGI (A549 NSCLC) was 13.6 µM and the TGI (ACHN renal) was 11.3 µM. It also gave a TGI (BT-549 breast) of 30.4 µM, a TGI (CAKI-1 renal) of 13.3 µM and a TGI (CCRF-CEM leukemia) of 42.8 µM. The TGI (COLO 205 colon) was 17.6 µM, the TGI (DU-145 prostate) was greater than 100 µM and the TGI (EKVX NSCLC) was 23.1 µM. The TGI (HCC-2998 colon) was 40.3 µM, the TGI (HCT-116 colon) was 12.9 µM and the TGI (HCT-15 colon) was 23.1 µM. For the same compound, the TGI (HOP-62 NSCLC) was 11.9 µM, the TGI (HOP-92 NSCLC) was 20 µM and the TGI (HS 578T breast) was 17.5 µM. The TGI (HT29 colon) was 54.5 µM, the TGI (IGROV1 ovarian) was 12.7 µM and the TGI (K-562 leukemia) was greater than 100 µM. The TGI (KM12 colon) was 40.8 µM, the TGI (LOX IMVI melanoma) was 10.7 µM and the TGI (M14 melanoma) was 7.69 µM. The TGI (MALME-3M melanoma) was 20.8 µM, the TGI (MCF7 breast) was 25.9 µM and the TGI (MDA-MB-231 breast) was 15.8 µM. For the same compound, the TGI (MDA-MB-435) was 17.5 µM, the TGI (MDA-N) was 25.5 µM and the TGI (MOLT-4 leukemia) was 10.9 µM. It also gave a TGI (NCI-H23 lung) of 34.9 µM, a TGI (NCI-H460 lung) of 15.9 µM and a TGI (NCI-H522 lung) of 4.93 µM. It also gave a TGI (NCI/ADR-RES ovarian) of 26 µM, a TGI (OVCAR-3 ovarian) of 61 µM and a TGI (OVCAR-4 ovarian) greater than 100 µM. For the same compound, the TGI (OVCAR-5 ovarian) was 73.3 µM, the TGI (OVCAR-8 ovarian) was 33.7 µM and the TGI (PC-3 prostate) was 26.2 µM. For the same compound, the TGI (RPMI-8226 leukemia) was greater than 100 µM, the TGI (SF-268 CNS) was 17.4 µM and the TGI (SF-295 CNS) was 14.4 µM. For the same compound, the TGI (SF-539 CNS) was 12.7 µM, the TGI (SK-MEL-2 melanoma) was 25.6 µM and the TGI (SK-MEL-28 melanoma) was 20 µM. For the same compound, the TGI (SK-MEL-5 melanoma) was 8.97 µM, the TGI (SK-OV-3 ovarian) was 10.8 µM and the TGI (SN12C renal) was 34 µM. It also gave a TGI (SNB-19 CNS) of 22.2 µM, a TGI (SNB-75 CNS) of 16.1 µM and a TGI (SR leukemia) greater than 100 µM. For the same compound, the TGI (SW-620 colon) was 20 µM, the TGI (T-47D breast) was greater than 100 µM and the TGI (TK-10 renal) was 71.7 µM. It also gave a TGI (U251 CNS) of 13.5 µM, a TGI (UACC-257 melanoma) of 18.9 µM and a TGI (UACC-62 melanoma) of 3.68 µM. For the same compound, the TGI (UO-31 renal) was 12.5 µM.
